The values below are quoted from earlier work in patent publication US9351995B1, “Compositions and methods of enhancing wound healing” (RED OAX HOLDINGS, LLC, priority 2011, dated 2016).

For data set [1], the system named is fibroblast. The conditions noted are these: cited from earlier work.
For data set [2], the system named is human surface respiratory epithelium. Conditions: cited from earlier work.

As to `[Br-].[Br-].[Mg+2]` [MgBr2], the fibroblast outgrowth result in data set [1] was “inhibitory effects on fibroblast outgrowth”.
As for `COc1cc2c(c(OC)c1OC)-c1ccc(OC)c(=O)cc1[C@@H](NC(C)=O)CC2` [colchicine], the “effect on repair of small-size injuries” value in data set [2] is “did not interrupt the repair process”.
Take `C=C1[C@@H](C)[C@H]2[C@H](Cc3ccccc3)NC(=O)[C@]23OC(=O)/C=C/[C@H](O)CCC[C@@H](C)C/C=C/[C@H]3[C@@H]1O` [cytochalasin B]: in data set [2], the “effect on repair of small-size injuries” value is “prevented cell migration”.
